Like-named read-outs stand apart in the source and are kept apart here.
Experiments:
[1] = target: T1, FXR (CMX-hFXR with CMX-RXRα in CV-1 cells) (Homo sapiens, UniProt Q96RI1); assay: FXR/ECREx7 co-transfection assay (luciferase reporter); assay type: cell-based; details: for EC50: FXR agonism
T1 construct: expressed in transfected cells; host or cells: CV-1 African Green Monkey Kidney cells
T1 sequence (Q96RI1 1-472 isoform Q96RI1-2): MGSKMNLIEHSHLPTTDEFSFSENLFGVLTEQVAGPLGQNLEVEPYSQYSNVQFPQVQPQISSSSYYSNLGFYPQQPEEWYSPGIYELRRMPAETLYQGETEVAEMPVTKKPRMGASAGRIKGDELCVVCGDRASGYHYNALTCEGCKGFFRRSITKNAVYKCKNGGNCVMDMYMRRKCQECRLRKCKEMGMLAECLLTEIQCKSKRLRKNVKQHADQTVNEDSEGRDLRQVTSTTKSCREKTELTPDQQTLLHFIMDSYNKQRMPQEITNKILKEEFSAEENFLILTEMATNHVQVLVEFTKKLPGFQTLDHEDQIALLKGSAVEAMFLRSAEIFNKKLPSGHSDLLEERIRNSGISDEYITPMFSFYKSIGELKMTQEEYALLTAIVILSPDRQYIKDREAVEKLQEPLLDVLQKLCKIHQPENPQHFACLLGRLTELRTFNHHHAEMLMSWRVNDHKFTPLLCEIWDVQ
T1 sequence (P19793 1-462 partner): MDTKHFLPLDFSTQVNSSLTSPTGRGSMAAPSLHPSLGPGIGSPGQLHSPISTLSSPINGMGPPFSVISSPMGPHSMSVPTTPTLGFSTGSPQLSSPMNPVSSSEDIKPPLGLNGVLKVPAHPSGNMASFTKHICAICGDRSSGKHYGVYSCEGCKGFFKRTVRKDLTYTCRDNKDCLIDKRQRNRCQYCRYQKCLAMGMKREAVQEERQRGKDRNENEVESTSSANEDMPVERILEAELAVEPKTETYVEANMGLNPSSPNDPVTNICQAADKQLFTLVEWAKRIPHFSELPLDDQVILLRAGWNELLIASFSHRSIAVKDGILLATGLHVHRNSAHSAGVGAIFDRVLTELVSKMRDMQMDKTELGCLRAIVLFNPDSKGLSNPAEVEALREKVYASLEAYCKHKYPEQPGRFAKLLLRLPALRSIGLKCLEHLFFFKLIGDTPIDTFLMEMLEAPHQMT
Experimental: The basic co-transfection protocol for measuring FXR activity is as follows. CV-1 African Green Monkey Kidney cells are plated 24 hours before transfection to achieve approximately 70–80 percent confluency. Cells are transfected with CMX-hFXR, CMX-RXRα, Luc12 reporter (ECREx7-Tk-Luciferase), and a CMX-β-Galactosidase expression vector. The transfection reagent used is DOTAP. Cells are incubated with the DOTAP/DNA mixture for 5 hours after which the cells are harvested and plated onto either 96 well or 384 well plates containing the appropriate concentration of test compound. The assay is allowed to continue for an additional 18–20 hours, after which the cells are lysed, and the luciferase activity is measured on a standard plate reader.
(§1) Both the FXR/ECREx7 co-transfection assay (Example 54) and the TR-FRET assay (Example 53) can be used to establish the EC50/IC50 values for potency and percent activity or inhibition for efficacy. Efficacy defines the activity of a compound relative to a high control (chenodeoxycholic acid, CDCA) or a low control (DMSO/vehicle). The dose response curves are generated from an 8 point curve with concentrations differing by ½ LOG units. Each point represents the average of 4 wells of data from a 384 well plate. The curve for the data is generated by using the equation: Y=Bottom+(Top−Bottom)/(1+10^((LogEC50−X)*HillSlope))
(§2) The EC50/IC50 is therefore defined as the concentration at which an agonist or antagonist elicits a response that is half way between the Top (maximum) and Bottom (baseline) values. The EC50/IC50 values represented are the averages of at least 3 independent experiments. The determination of the relative efficacy or % control for an agonist is by comparison to the maximum response achieved by chenodeoxycholic acid that is measured individually in each dose response experiment.
For the antagonist assay, 40 μM CDCA is added to each well of a 384 well plate to elicit a response. The % inhibition for each antagonist is therefore a measurement of the inhibition of the activity of 40 μM CDCA. In this example 100% inhibition would indicate that the activity of 40 μM CDCA has been reduced to baseline levels, defined as the activity of the assay in the presence of DMSO only.

[2] = target: T2, GST-FXR-LBD (Homo sapiens, UniProt Q96RI1); assay: Time resolved fluorescence resonance energy transfer (TR-FRET) coactivator recruitment assay; assay type: biochemical
T2 sequence (Q96RI1 244-472 isoform Q96RI1-2): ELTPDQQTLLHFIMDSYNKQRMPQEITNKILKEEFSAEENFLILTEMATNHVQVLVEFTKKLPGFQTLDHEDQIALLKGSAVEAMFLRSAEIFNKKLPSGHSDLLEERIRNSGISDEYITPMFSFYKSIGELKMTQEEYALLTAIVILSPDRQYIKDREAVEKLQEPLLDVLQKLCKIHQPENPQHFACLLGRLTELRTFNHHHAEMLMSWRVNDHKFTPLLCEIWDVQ
Experimental: The FRET assay was performed by incubating 8 nM of GST-FXR-LBD, 8 nM of Europium-labeled anti-GST antibody (Wallac), 16 nM biotin-SRC-1 peptide [5′-biotin-[…]-CONH2], 20 nM APC-SA [allophycocyanin conjugated streptavidin] (Wallac) in FRET assay buffer (20 mM KH2PO4/K2HPO4 (pH 7.3), 150 mM NaCl, 2 mM CHAPS, 2 mM EDTA, 1 mM DTT) in the presence of the test compound(s) for 2–4 hours at room temperature. Data was collected using an LJL Analyst with readings at 615 nm and 665 nm.
as §1, with “The curve for the data is generated by using the equation: Y=Bottom+(Top−Bottom)/(1+10^((LogEC50−X)*HillSlope))” left out
as §2, with “The EC50/IC50 values represented are the averages of at least 3 independent experiments.” left out, “experiment. […]” for “experiment.”

Emax ([1]; CV-1, relative to maximum response of chenodeoxycholic acid (CDCA), co-transfection assay, read-out: % efficacy)	Compound	Emax ([1]; CV-1, read-out: % efficacy)	EC50 ([1]; co-transfection assay)	IC50 ([2]; FXR antagonism)	% inhibition ([2]; inhibition of the activity of 40 μM CDCA)
	CCNc1ccc(C#N)cc1N=C1SC(=C2SC(C)=C(c3ccccc3)N2C)C(=O)N1Cc1ccccc1 [Example 52, 3-(3′-benzyl-3,5-dimethyl-4′-oxo-4-phenyl-3′,4′-dihydro-3H-[2,5′]-bithiazolyliden-2′-ylideneamino)-4-(ethylamino)benzonitrile]	~32%	~56 nM	~42 nM	about 48%
~150%	CCNc1ccc(C#N)cc1N=C1SC(=C2Sc3ccccc3N2C)C(=O)N1Cc1ccccc1 [Example 32, 3-[3-benzyl-5-(3-methyl-3H-benzothiazol-2-ylidene)-4-oxothiazolidin-2-ylideneamino]-4-(ethylamino)benzonitrile]		~10 nM		

From US7115640B2, “Heterocyclic modulators of nuclear receptors” (X-Ceptor Therapeutics, Inc., priority 2001, dated 2006)
